Legend:
Type in all cases: in vivo
rice (Oryza sativa) = assay: Test B flood test
Description: (§1) At the same time, these crop and weed species were also treated with postemergence applications of test chemicals formulated in the same manner. Plants ranged in height from 2 to 18 cm (1- to 4-leaf stage) for postemergence treatments. Plant species in the flood test consisted of rice (Oryza sativa), smallflower flatsedge (Cyperus difformis), duck salad (Heteranthera limosa) and bamyardgrass (Echinochloa crus-galli) grown to the 2-leaf stage for testing. Treated plants and controls were maintained in a greenhouse for twelve to sixteen days, after which all species were compared to controls and visually evaluated. Plant response ratings, summarized in Table B, are based on a scale of 0 to 10 where 0 is no effect and 10 is complete control. A dash (−) response means no test result.

[1] = tested on: duck salad (Heteranthera limosa); assay: Test B flood test
Description: as §1

[2] = tested on: bamyardgrass (Echinochloa crus-galli); assay: Test B flood test
Description: as §1

[3] = tested on: smallflower flatsedge (Cyperus difformis); assay: Test B flood test
Description: as §1

[4] = tested on: wheat (Triticum aestivum); assay: Test B pre-/postemergence; design: key: 0 is no effect; 10 is complete control
From the text: (§2) Seeds of bedstraw (Galium aparine), blackgrass (Alopecurus myosuroides), broadleaf signalgrass (Brachiaria decumbens), cocklebur (Xanthium strumarium), corn (Zea mays), crabgrass (Digitaria sanguinalis), giant foxtail (Setaria faberii), lambsquarters (Chenopodium album), momingglory (Ipomoea hederacea), pigweed (Amaranthus retroflexus), rape (Brassica napus), soybean (Glycine max), sugar beet (Beta vulgaris), velvetleaf (Abutilon theophrasti), wheat (Triticum aestivum), wild oat (Avena fatua) and purple nutsedge (Cyperus rotundus) tubers were planted and treated preemergence with test chemicals formulated in a non-phytotoxic solvent mixture which included a surfactant.
as §1

[5] = tested on: cocklebur (Xanthium strumarium); assay: Test B pre-/postemergence; design: key: 0 is no effect; 10 is complete control; settings: for Cocklebur plant response rating: Preemergence
From the text: as §2, §1

[6] = tested on: giant foxtail (Setaria faberii); assay: Test B pre-/postemergence; design: key: 0 is no effect; 10 is complete control
From the text: as §2, §1

soybean (Glycine max) = assay: Test B pre-/postemergence; design: key: 0 is no effect; 10 is complete control
From the text: as §2, §1

[7] = tested on: blackgrass (Alopecurus myosuroides); assay: Test B pre-/postemergence; design: key: 0 is no effect; 10 is complete control; settings: for Blackgrass plant response rating: Preemergence
From the text: as §2, §1

[8] = tested on: bedstraw (Galium aparine); assay: Test B pre-/postemergence; design: key: 0 is no effect; 10 is complete control; settings: for Bedstraw plant response rating: Preemergence
From the text: as §2, §1

corn (Zea mays) = assay: Test B pre-/postemergence; design: key: 0 is no effect; 10 is complete control; settings: for Corn plant response rating: Preemergence
From the text: as §2, §1

[9] = tested on: sugar beet (Beta vulgaris); assay: Test B pre-/postemergence; design: key: 0 is no effect; 10 is complete control
From the text: as §2, §1

wild oat (Avena fatua) = assay: Test B pre-/postemergence; design: key: 0 is no effect; 10 is complete control
From the text: as §2, §1

[10] = tested on: velvetleaf (Abutilon theophrasti); assay: Test B pre-/postemergence; design: key: 0 is no effect; 10 is complete control
From the text: as §2, §1

[11] = tested on: momingglory (Ipomoea hederacea); assay: Test B pre-/postemergence; design: key: 0 is no effect; 10 is complete control
From the text: as §2, §1

[12] = tested on: crabgrass (Digitaria sanguinalis); assay: Test B pre-/postemergence; design: key: 0 is no effect; 10 is complete control; settings: for Crabgrass plant response rating: Preemergence
From the text: as §2, §1

[13] = tested on: broadleaf signalgrass (Brachiaria decumbens); assay: Test B pre-/postemergence; design: key: 0 is no effect; 10 is complete control; settings: for B. signalgrass plant response rating: Preemergence
From the text: as §2, §1

[14] = tested on: pigweed (Amaranthus retroflexus); assay: Test B pre-/postemergence; design: key: 0 is no effect; 10 is complete control
From the text: as §2, §1

rape (Brassica napus) = assay: Test B pre-/postemergence; design: key: 0 is no effect; 10 is complete control
From the text: as §2, §1

[15] = Rate 62 g/ha, Postemergence (flood test)
[16] = Rate 125 g/ha, Postemergence section (flood test species)
[17] = Rate 250 g/ha, Postemergence (flood test species)
[18] = Rate 125 g/ha, Postemergence, flood test
[19] = Rate 250 g/ha, Postemergence (so in the source)

CCc1cnc(-n2ccc(C(F)(F)F)n2)nc1Cc1cccc(OC(F)(F)F)c1 [Compound 47]
10: Giant foxtail plant response rating ([6]; Rate 125 g/ha, Preemergence) | Plant response rating, Giant foxtail [6, 19] | Plant response rating, Blackgrass [7, 19] | Plant response rating, Wild oats (wild oat (Avena fatua); [19]) | Plant response rating, Velvetleaf ([10]; Rate 125 g/ha, Preemergence) | Plant response rating, Velvetleaf [10, 19] | Crabgrass plant response rating ([12]; Rate 125 g/ha) | Plant response rating, Crabgrass ([12]; Rate 250 g/ha, Postemergence) | Plant response rating, Crabgrass [12, 19] | Plant response rating, Redroot pigweed [14, 19] | Plant response rating, Rape (rape (Brassica napus); Rate 62 g/ha, Postemergence) | Rape plant response rating (rape (Brassica napus); Rate 125 g/ha, Postemergence) | Plant response rating, Rape (rape (Brassica napus); Rate 250 g/ha, Postemergence) | Plant response rating, Rape (rape (Brassica napus); [19])
5: Rice plant response rating (rice (Oryza sativa); [16]) | Wheat plant response rating ([4]; Rate 62 g/ha, Postemergence) | Wheat plant response rating ([4]; Rate 125 g/ha, Postemergence) | Plant response rating, Wheat [4, 19] | Plant response rating, Blackgrass ([7]; Rate 62 g/ha, Postemergence) | Plant response rating, Blackgrass ([7]; Rate 125 g/ha, Postemergence) | B. signalgrass plant response rating ([13]; Rate 62 g/ha) | Plant response rating, B. signalgrass ([13]; Rate 125 g/ha, Postemergence)
6: Plant response rating, Rice (rice (Oryza sativa); [17]) | Plant response rating, Barnyardgrass [2, 17] | Plant response rating, Wheat ([4]; Rate 250 g/ha, Postemergence) | Plant response rating, Blackgrass ([7]; Rate 250 g/ha, Postemergence) | Wild oats plant response rating (wild oat (Avena fatua); Rate 62 g/ha, Postemergence) | Plant response rating, Morningglory ([11]; Rate 62 g/ha, Postemergence) | Morningglory plant response rating ([11]; Rate 125 g/ha, Postemergence) | Morningglory plant response rating ([11]; Rate 125 g/ha, Preemergence) | Plant response rating, Morningglory [11, 19] | B. signalgrass plant response rating ([13]; Rate 125 g/ha)
2: Plant response rating, Barnyardgrass [2, 15] | Wheat plant response rating ([4]; Rate 62 g/ha, Preemergence) | Cocklebur plant response rating ([5]; Rate 125 g/ha) | Plant response rating, Cocklebur [5, 19] | Plant response rating, Soybean (soybean (Glycine max); [19]) | Corn plant response rating (corn (Zea mays); Rate 125 g/ha)
3: Plant response rating, Rice (rice (Oryza sativa); [15]) | Plant response rating, Ducksalad [1, 15] | Plant response rating, Ducksalad [1, 18] | Plant response rating, Barnyardgrass [2, 18] | Plant response rating, Wheat ([4]; Rate 125 g/ha, Preemergence) | Blackgrass plant response rating ([7]; Rate 62 g/ha) | Plant response rating, Corn (corn (Zea mays); Rate 62 g/ha, Postemergence) | Plant response rating, Corn (corn (Zea mays); Rate 125 g/ha, Postemergence) | Plant response rating, Corn (corn (Zea mays); [19])
7: Plant response rating, Ducksalad [1, 17] | Plant response rating, S. Flatsedge [3, 15] | S. Flatsedge plant response rating [3, 16] | Plant response rating, Cocklebur ([5]; Rate 62 g/ha, Postemergence) | Plant response rating, Giant foxtail ([6]; Rate 250 g/ha, Postemergence) | Plant response rating, Soybean (soybean (Glycine max); Rate 250 g/ha, Postemergence) | Bedstraw plant response rating ([8]; Rate 62 g/ha) | Sugarbeets plant response rating ([9]; Rate 62 g/ha, Preemergence) | Plant response rating, Sugarbeets ([9]; Rate 125 g/ha, Preemergence) | Plant response rating, Velvetleaf ([10]; Rate 62 g/ha, Postemergence) | Velvetleaf plant response rating ([10]; Rate 125 g/ha, Postemergence) | Plant response rating, Crabgrass ([12]; Rate 62 g/ha, Postemergence) | Rape plant response rating (rape (Brassica napus); Rate 62 g/ha, Preemergence)
9: Plant response rating, S. Flatsedge [3, 17] | Giant foxtail plant response rating ([6]; Rate 62 g/ha, Preemergence) | Plant response rating, Bedstraw ([8]; Rate 62 g/ha, Postemergence) | Plant response rating, Sugarbeets ([9]; Rate 62 g/ha, Postemergence) | Sugarbeets plant response rating ([9]; Rate 125 g/ha, Postemergence) | Plant response rating, Sugarbeets ([9]; Rate 250 g/ha, Postemergence) | Plant response rating, Sugarbeets [9, 19] | Wild oats plant response rating (wild oat (Avena fatua); Rate 62 g/ha, Preemergence) | Plant response rating, Wild oats (wild oat (Avena fatua); Rate 125 g/ha, Preemergence) | Plant response rating, Wild oats (wild oat (Avena fatua); Rate 250 g/ha, Postemergence) | Plant response rating, Crabgrass ([12]; Rate 125 g/ha, Postemergence) | Plant response rating, B. signalgrass ([13]; Rate 250 g/ha, Postemergence as printed in head r139 (second section for compounds 26-50)) | Plant response rating, Redroot pigweed ([14]; Rate 62 g/ha, Postemergence) | Redroot pigweed plant response rating ([14]; Rate 125 g/ha, Postemergence) | Redroot pigweed plant response rating ([14]; Rate 125 g/ha, Preemergence) | Plant response rating, Redroot pigweed ([14]; Rate 250 g/ha, Postemergence) | Rape plant response rating (rape (Brassica napus); Rate 125 g/ha, Preemergence)
1: Cocklebur plant response rating ([5]; Rate 62 g/ha) | Corn plant response rating (corn (Zea mays); Rate 62 g/ha) | Morningglory plant response rating ([11]; Rate 62 g/ha, Preemergence)
8: Plant response rating, Cocklebur ([5]; Rate 125 g/ha, Postemergence) | Plant response rating, Cocklebur ([5]; Rate 250 g/ha, Postemergence) | Plant response rating, Soybean (soybean (Glycine max); Rate 62 g/ha, Postemergence) | Soybean plant response rating (soybean (Glycine max); Rate 125 g/ha, Postemergence) | Blackgrass plant response rating ([7]; Rate 125 g/ha) | Bedstraw plant response rating ([8]; Rate 125 g/ha) | Plant response rating, Bedstraw [8, 19] | Wild oats plant response rating (wild oat (Avena fatua); Rate 125 g/ha, Postemergence) | Velvetleaf plant response rating ([10]; Rate 62 g/ha, Preemergence) | Plant response rating, Velvetleaf ([10]; Rate 250 g/ha, Postemergence) | Plant response rating, Morningglory ([11]; Rate 250 g/ha, Postemergence) | Crabgrass plant response rating ([12]; Rate 62 g/ha) | Plant response rating, B. signalgrass ([13]; Rate 250 g/ha, Postemergence) | Redroot pigweed plant response rating ([14]; Rate 62 g/ha, Preemergence)
0: Soybean plant response rating (soybean (Glycine max); Rate 62 g/ha, Preemergence) | Plant response rating, Soybean (soybean (Glycine max); Rate 125 g/ha, Preemergence)
4: Plant response rating, Giant foxtail ([6]; Rate 62 g/ha, Postemergence) | Giant foxtail plant response rating ([6]; Rate 125 g/ha, Postemergence) | Plant response rating, Corn (corn (Zea mays); Rate 250 g/ha, Postemergence) | Plant response rating, B. signalgrass ([13]; Rate 62 g/ha, Postemergence)
